Source: patent US10029992B2, “Diaminotriazine compounds and their use as herbicides” (BASF SE, priority 2014, dated 2018)

How the values were obtained:
ALOMY = test: Greenhouse experiment, pre-emergence treatment; type: in vivo, Alopecurus myosuroides; conditions: pre-emergence method
Excerpt: (§1) The culture containers used were plastic flowerpots containing loamy sand with approximately 3.0% of humus as the substrate. The seeds of the test plants were sown separately for each species.
(§2) For the pre-emergence treatment, the active ingredients, which had been suspended or emulsified in water, were applied directly after sowing by means of finely distributing nozzles. The containers were irrigated gently to promote germination and growth and subsequently covered with transparent plastic hoods until the plants had rooted. This cover caused uniform germination of the test plants, unless this had been impaired by the active ingredients.
(§3) Depending on the species, the plants were kept at 10-25° C. or 20-35° C., respectively.
(§4) The test period extended over 2 to 4 weeks. During this time, the plants were tended, and their response to the individual treatments was evaluated.
(§5) Evaluation was carried out using a scale from 0 to 100. 100 means no emergence of the plants, or complete destruction of at least the aerial moieties, and 0 means no damage, or normal course of growth. A moderate herbicidal activity is given at values of at least 60, a good herbicidal activity is given at values of at least 70, and a very good herbicidal activity is given at values of at least 85.
(§6) The plants used in the greenhouse experiments were of the following species: […]

AMARE [1] = test: Greenhouse experiment, pre-emergence treatment; type: in vivo, Amaranthus retroflexus; conditions: pre-emergence method
Excerpt: (§7) The seeds of the test plants were sown separately for each species. For the pre-emergence treatment, the active ingredients, which had been suspended or emulsified in water, were applied directly after sowing by means of finely distributing nozzles. The containers were irrigated gently to promote germination and growth and subsequently covered with transparent plastic hoods until the plants had rooted. This cover caused uniform germination of the test plants, unless this had been impaired by the active ingredients. Depending on the species, the plants were kept at 10-25° C. or 20-35° C., respectively. The test period extended over 2 to 4 weeks. During this time, the plants were tended, and their response to the individual treatments was evaluated. Evaluation was carried out using a scale from 0 to 100. 100 means no emergence of the plants, or complete destruction of at least the aerial moieties, and 0 means no damage, or normal course of growth. A moderate herbicidal activity is given at values of at least 60, a good herbicidal activity is given at values of at least 70, and a very good herbicidal activity is given at values of at least 85. […] [table]

APESV = test: Greenhouse experiment, pre-emergence treatment; type: in vivo, Apera spica-venti; conditions: pre-emergence method
Excerpt: as §1, §2, §3, §4, §5, §6

ECHCG [2] = test: Greenhouse experiment, pre-emergence treatment; type: in vivo, Echinochloa crus-galli; conditions: pre-emergence method
Excerpt: as §1, §2, §3, §4, §5, §6

SETFA [3] = test: Greenhouse experiment, pre-emergence treatment; type: in vivo, Setaria faberi; conditions: pre-emergence method
Excerpt: as §7

CAPBP = test: Greenhouse experiment, post-emergence treatment; type: in vivo, Capsella bursa-pastoris; conditions: post-emergence method, application rate 63 g/ha
Method: (§8) The seeds of the test plants were sown separately for each species. […] For this purpose, the test plants were either sown directly and grown in the same containers, or they were first grown separately as seedlings and transplanted into the test containers a few days prior to treatment. Depending on the species, the plants were kept at 10-25° C. or 20-35° C., respectively. The test period extended over 2 to 4 weeks. During this time, the plants were tended, and their response to the individual treatments was evaluated. Evaluation was carried out using a scale from 0 to 100. 100 means no emergence of the plants, or complete destruction of at least the aerial moieties, and 0 means no damage, or normal course of growth. A moderate herbicidal activity is given at values of at least 60, a good herbicidal activity is given at values of at least 70, and a very good herbicidal activity is given at values of at least 85. […] [table]

SETVI = test: Greenhouse experiment, post-emergence treatment; type: in vivo, Setaria viridis; conditions: post-emergence method, application rate 63 g/ha
Method: as §8

STEME = test: Greenhouse experiment, post-emergence treatment; type: in vivo, Stellaria media; conditions: post-emergence method, application rate 63 g/ha
Method: as §8

ABUTH = test: Greenhouse experiment, post-emergence treatment; type: in vivo, Abutilon theophrasti; conditions: post-emergence method, application rate 125 g/ha
Method: as §8

AMARE [4] = test: Greenhouse experiment, post-emergence treatment; type: in vivo, Amaranthus retroflexus; conditions: post-emergence method, application rate 125 g/ha
Method: as §8

SETFA [5] = test: Greenhouse experiment, post-emergence treatment; type: in vivo, Setaria faberi; conditions: post-emergence method, application rate 125 g/ha
Method: as §8

ECHCG [6] = test: Greenhouse experiment, post-emergence treatment; type: in vivo, Echinochloa crus-galli; conditions: post-emergence method, application rate 125 g/ha
Method: as §8

| SMILES | herbicidal activity against ABUTH (ABUTH) | herbicidal activity against AMARE (AMARE [4]) | herbicidal activity against SETFA (SETFA [5]) | further results |
| --- | --- | --- | --- | --- |
| CC(C)(F)c1nc(N)nc(Nc2c(F)cccc2Oc2ccccc2)n1 [Example 25] | – | – | – | herbicidal activity against ALOMY (ALOMY; application rate 0.25 kg/ha): very good (a very good herbicidal activity is given at values of at least 85); herbicidal activity against AMARE (AMARE [1]; application rate 0.25 kg/ha): very good (a very good herbicidal activity is given at values of at least 85); herbicidal activity against APESV (APESV; application rate 0.25 kg/ha): very good (a very good herbicidal activity is given at values of at least 85) |
| COC(C)(C)c1nc(N)nc(Nc2c(F)cccc2Oc2cc(C)cc(C)c2)n1 [Example 36] | – | – | – | herbicidal activity against ALOMY (ALOMY; application rate 0.25 kg/ha): good (a good herbicidal activity is given at values of at least 70); herbicidal activity against APESV (APESV; application rate 0.25 kg/ha): very good (a very good herbicidal activity is given at values of at least 85); herbicidal activity against APESV (APESV; application rate 1000 g/ha): very good (a very good herbicidal activity is given at values of at least 85); herbicidal activity against ECHCG (ECHCG [2]; application rate 1000 g/ha): very good (a very good herbicidal activity is given at values of at least 85); herbicidal activity against SEFTA (SETFA [3]; application rate 1000 g/ha): very good (a very good herbicidal activity is given at values of at least 85) |
| CC(C)(F)c1nc(N)nc(Nc2c(F)cccc2Oc2cc(C(F)(F)F)cc(C(F)(F)F)c2)n1 [Example 52] | – | – | – | herbicidal activity against CAPBP (CAPBP): very good (a very good herbicidal activity is given at values of at least 85); herbicidal activity against SETVI (SETVI): very good (a very good herbicidal activity is given at values of at least 85); herbicidal activity against STEME (STEME): very good (a very good herbicidal activity is given at values of at least 85) |
| CC(C)(F)c1nc(N)nc(Nc2c(F)cccc2Oc2cc(Br)cc(Br)c2)n1 [Example 55] | very good (a very good herbicidal activity is given at values of at least 85) | very good (a very good herbicidal activity is given at values of at least 85) | very good (a very good herbicidal activity is given at values of at least 85) | – |
| CC(C)(F)c1nc(N)nc(Nc2c(F)cccc2Oc2cc(F)cc(Br)c2)n1 [Example 56] | good (a good herbicidal activity is given at values of at least 70) | very good (a very good herbicidal activity is given at values of at least 85) | very good (a very good herbicidal activity is given at values of at least 85) | – |
| COc1cc(Cl)cc(Oc2cccc(F)c2Nc2nc(N)nc(C(C)(C)F)n2)c1 [Example 57] | very good (a very good herbicidal activity is given at values of at least 85) | very good (a very good herbicidal activity is given at values of at least 85) | very good (a very good herbicidal activity is given at values of at least 85) | – |
| CC(C)(F)c1nc(N)nc(Nc2c(F)cccc2Oc2cc(Cl)cc(Br)c2)n1 [Example 58] | very good (a very good herbicidal activity is given at values of at least 85) | very good (a very good herbicidal activity is given at values of at least 85) | very good (a very good herbicidal activity is given at values of at least 85) | – |
| CC(C)(F)c1nc(N)nc(Nc2c(F)cccc2Oc2cc(F)cc(C#N)c2)n1 [Example 59] | very good (a very good herbicidal activity is given at values of at least 85) | very good (a very good herbicidal activity is given at values of at least 85) | very good (a very good herbicidal activity is given at values of at least 85) | – |
| CC(C)(F)c1nc(N)nc(Nc2c(F)cccc2Oc2cc(Br)cc(OC(F)(F)F)c2)n1 [Example 60] | very good (a very good herbicidal activity is given at values of at least 85) | very good (a very good herbicidal activity is given at values of at least 85) | very good (a very good herbicidal activity is given at values of at least 85) | – |
| COc1cc(Br)cc(Oc2cccc(F)c2Nc2nc(N)nc(C(C)(C)F)n2)c1 [Example 61] | very good (a very good herbicidal activity is given at values of at least 85) | very good (a very good herbicidal activity is given at values of at least 85) | very good (a very good herbicidal activity is given at values of at least 85) | – |
| COc1cc(F)cc(Oc2cccc(F)c2Nc2nc(N)nc(C(C)(C)F)n2)c1 [Example 62] | very good (a very good herbicidal activity is given at values of at least 85) | very good (a very good herbicidal activity is given at values of at least 85) | very good (a very good herbicidal activity is given at values of at least 85) | – |
| COc1cc(C)cc(Oc2cccc(F)c2Nc2nc(N)nc(C(C)(C)F)n2)c1 [Example 63] | – | very good (a very good herbicidal activity is given at values of at least 85) | very good (a very good herbicidal activity is given at values of at least 85) | herbicidal activity against ECHCG (ECHCG [6]): very good (a very good herbicidal activity is given at values of at least 85) |
| COc1cc(Oc2cccc(F)c2Nc2nc(N)nc(C(C)(C)F)n2)cc(C(F)(F)F)c1 [Example 65] | very good (a very good herbicidal activity is given at values of at least 85) | – | very good (a very good herbicidal activity is given at values of at least 85) | herbicidal activity against ECHCG (ECHCG [6]): very good (a very good herbicidal activity is given at values of at least 85) |
| CC(C)(F)c1nc(N)nc(Nc2c(F)cccc2Oc2cc(I)cc(I)c2)n1 [Example 67] | – | – | good (a good herbicidal activity is given at values of at least 70) | herbicidal activity against ECHCG (ECHCG [6]): good (a good herbicidal activity is given at values of at least 70) |
| CCOc1cc(OCC)cc(Oc2cccc(F)c2Nc2nc(N)nc(C(C)(C)F)n2)c1 [Example 68] | very good (a very good herbicidal activity is given at values of at least 85) | – | very good (a very good herbicidal activity is given at values of at least 85) | herbicidal activity against ECHCG (ECHCG [6]): very good (a very good herbicidal activity is given at values of at least 85) |
| CC(C)Oc1cc(F)cc(Oc2cccc(F)c2Nc2nc(N)nc(C(C)(C)F)n2)c1 [Example 99] | – | – | – | herbicidal activity against ALOMY (ALOMY; application rate 500 g/ha): very good (a very good herbicidal activity is given at values of at least 85); herbicidal activity against AMARE (AMARE [1]; application rate 500 g/ha): very good (a very good herbicidal activity is given at values of at least 85); herbicidal activity against ECHCG (ECHCG [2]; application rate 500 g/ha): very good (a very good herbicidal activity is given at values of at least 85) |
| CC(C)(F)c1nc(N)nc(Nc2c(F)cccc2Oc2cc(F)cc(I)c2)n1 [Example 101] | – | – | – | herbicidal activity against ALOMY (ALOMY; application rate 250 g/ha): good (a good herbicidal activity is given at values of at least 70); herbicidal activity against ECHCG (ECHCG [2]; application rate 250 g/ha): very good (a very good herbicidal activity is given at values of at least 85); herbicidal activity against SEFTA (SETFA [3]; application rate 250 g/ha): very good (a very good herbicidal activity is given at values of at least 85) |
